What all share (type): cell-based
In one series the test system is human dermal fibroblasts. Description: Human dermal fibroblast cells (hDFC) proliferation, cell viability assay (CellTiter-Glo, manual cell counting). The following applies: hDFCs proliferation; control is DMSO. In general terms: ATP-based viability assays read luminescence as a measure of living cells.
For another series, the system named is TK.6 lymphoblasts. Put plainly: In vitro genotoxicity: TK.6 micronuclei assay (FIG. 5B) and SOS chromotest (FIG. 5C). Conditions: TK.6 micronuclei assay without S9, 24 hr, and SOS chromotest; across a concentration range. The procedure: (§1) The safety/toxicology profiles of a compound or salt of the present disclosure was evaluated via a series of in vitro genotoxicity assays, including the SOS-chromotest to determine bacterial genotoxicity, and the TK.6 micronucleus assay to determine chromosomal damage and forward mutations. Standard reactive oxygen species (ROS) and caspase 3/7 assay were conducted to determine general cellular toxicity. Moreover, a series of sensitization tests were conducted to predict any potential skin sensitivity. These include the direct peptide reactivity assay to evaluate haptenization, the KeratinoSens reporter assay to determine any potential sensitivity via the activation of a cytoprotective pathway, and an immunological assay using human immature monocyte-derived dendritic cells to evaluate any potential immunogenicity.
TK.6 lymphoblasts are a cell line used for gene mutation analyses. TK.6 lymphoblasts are heterozygous for the thymidine kinase gene (TK) and enable the detection of forward mutations and chromosomal damage, which manifests as micronuclei. TK.6 lymphoblasts are detectable via flow cytometry. TK.6 cells were dosed with the compounds or a vehicle control (0.1% v/v DMSO) and cultured without S9 metabolic activation for 24 hr. FIG. 5A-FIG. 5E show the results of in vitro genotoxicity assay and the TK.6 micronucleus assay. FIG. 5A are example plots of TK.6 cells treated with compound V-1. Methyl methanesulfonate, a genotoxic, alkylating agent was used as a positive control for micronuclei detection. […] The SOS chromotest is a bacteria-based test for genotoxicity. […] Cells were treated with either the compounds or vehicle control containing correspondingly % v/v-matched amounts of DMSO. High represents 10 µg/mL while low represents 1 μg/mL. Tested compounds elicited no or minor caspase 3/7 activation at low and high concentrations. In FIG. 5A-FIG. 5E, data represents mean±s.d. and representative of at least 2 experimental replicates.

The next series has as its system Nrf2-ARE pathway. Put plainly: KeratinoSens Nrf2-ARE reporter assay (ARE-luciferase activity). The following applies: across a concentration range. The procedure:
as §1
The Nrf2-ARE pathway is a master regulator of cytoprotective responses to oxidative stress, and is an early indicator of skin sensitization. Nrf2 (nuclear factor erythroid 2-related factor) is a transcription factor that binds to antioxidant responsive elements (ARE). By fusing ARE to the light-producing luciferase gene, a KeratinoSens Nrf2-ARE reporter assay was constructed whereby luciferase signal is directly correlated to Nrf2-ARE pathway activation. […] FIG. 6B describes an in vitro dendritic cell sensitization test. Dendritic cell activation is widely-associated with downstream immunogenicity. CD14+ cells from human donor peripheral mononuclear cells were harvested and differentiated them into immature monocyte-derived DCs using granulocyte-macrophage colony-stimulating factor (GM-CSF) and interleukin-4 (IL-4), then treated with the lead compounds. Killed E. Coli and TNF-α were used as positive controls. FIG. 6C-FIG. 6E are example plots showing change in HLA-DR expression. Expression of CD80 (FIG. 6C), PDL-1 (FIG. 6D), and CD141 (FIG. 6E) as quantified via mean fluorescence intensity (MFI) following dosing with example compounds. […] In FIG. 6A-FIG. 6E, data represents mean±s.d. and representative of at least 2 experimental replicates.
(In a reporter assay the amount or activity of a reporter protein is the signal.)

The text below walks through data of patent US12564547B2, “Compositions, formulations, and methods for skin treatment” (Oddity Labs, LLC, priority 2022, dated 2026).

In the case of `Cn1c(SCC(=O)N2CCCCCC2)nnc1-c1ccccc1` [I-1, 1-(azepan-1-yl)-2-[(4-methyl-5-phenyl-1,2,4-triazol-3-yl)sulfanyl]ethanone], the “Activity (Percent Increase Proliferation of hFDPCs (%))” value with human dermal fibroblasts was “C (increased proliferation of hFDPCs equals to or larger than 4% and less than 8%)”. In the series on TK.6 lymphoblasts, the genotoxic transformation potential entry is given as “mild genotoxicity at higher concentrations”. Moreover, in the series with Nrf2-ARE pathway, the “skin sensitizing potential (Nrf2-ARE pathway activation)” value (“skin sensitizing potential” for short) was “did not exhibit apparent Nrf2-ARE pathway activation”. Regarding `CCCCC(=O)NCCc1ccc(OC)cc1` [II-1, N-[2-(4-methoxyphenyl)ethyl]pentanamide], the “Activity (Percent Increase Proliferation of hFDPCs (%))” value in the series with human dermal fibroblasts is “C (increased proliferation of hFDPCs equals to or larger than 4% and less than 8%)”. Also, the genotoxic transformation potential entry in the series on TK.6 lymphoblasts is on record as “mild genotoxicity at higher concentrations”. In the series on Nrf2-ARE pathway, the “skin sensitizing potential” value is reported as “did not exhibit apparent Nrf2-ARE pathway activation”. For the compound `COc1ccc(NC(=O)C(=O)NCCCn2ccnc2)cc1` [III-1, N-(3-imidazol-1-ylpropyl)-N′-(4-methoxyphenyl)oxamide], in the series on human dermal fibroblasts, the “Activity (Percent Increase Proliferation of hFDPCs (%))” value is “D (increased proliferation of hFDPCs equals to or larger than 8%)”. In addition, the genotoxic transformation potential result in the series on TK.6 lymphoblasts is reported as “mild genotoxicity at higher concentrations”. Moreover, the “skin sensitizing potential” value in the series on Nrf2-ARE pathway was “did not exhibit apparent Nrf2-ARE pathway activation”.

For `Cc1[nH]c2ccc(C(=O)NCC3CCCO3)cc2c1C` (stereo not shown) [IV-1, 2,3-dimethyl-N-(oxolan-2-ylmethyl)-1H-indole-5-carboxamide], the “Activity (Percent Increase Proliferation of hFDPCs (%))” value with human dermal fibroblasts is “C (increased proliferation of hFDPCs equals to or larger than 4% and less than 8%)”. For the same compound, the genotoxic transformation potential result in the series with TK.6 lymphoblasts is listed as “mild genotoxicity at higher concentrations”. In the series on Nrf2-ARE pathway, the “skin sensitizing potential” value is “exhibited sensitizing potential”.

For `CN(C)C(=O)COC(=O)c1ccc2[nH]c3c(c2c1)CCCC3` [IV-2, [2-(dimethylamino)-2-oxoethyl] 6,7,8,9-tetrahydro-5H-carbazole-3-carboxylate], the “Activity (Percent Increase Proliferation of hFDPCs (%))” value in the series with human dermal fibroblasts was “B (increased proliferation of hFDPCs equals to or larger than 1% and less than 4%)”. Besides, in the series with TK.6 lymphoblasts, the genotoxic transformation potential result is “mild genotoxicity at higher concentrations”. The “skin sensitizing potential” value in the series on Nrf2-ARE pathway is given as “did not exhibit apparent Nrf2-ARE pathway activation”.

On to `CCOCCCn1c(=O)[nH]c2ccccc2c1=O` [V-1, 3-(3-ethoxypropyl)-1H-quinazoline-2,4-dione], for which, in the series on human dermal fibroblasts, the “Activity (Percent Increase Proliferation of hFDPCs (%))” value was “C (increased proliferation of hFDPCs equals to or larger than 4% and less than 8%)”. Further, the genotoxic transformation potential entry in the series on TK.6 lymphoblasts was “did not exhibit any genotoxic transformation potential”. Also, the “skin sensitizing potential” value in the series on Nrf2-ARE pathway is given as “did not exhibit apparent Nrf2-ARE pathway activation”.

As to `COc1ccccc1CN1CCNC(=O)C1CC(=O)N(C)C` (stereo not shown) [VII-22, 2-[1-[(2-methoxyphenyl)methyl]-3-oxopiperazin-2-yl]-N,N-dimethylacetamide], the “Activity (Percent Increase Proliferation of hFDPCs (%))” value with human dermal fibroblasts is given as “D (increased proliferation of hFDPCs equals to or larger than 8%)”. The same measure, in the same setting: then `CN(C)c1ccccc1CN1CCN(C(=O)N2CCOCC2)CC1` [VII-23, [4-[[2-(dimethylamino)phenyl]methyl]piperazin-1-yl]-morpholin-4-ylmethanone], with “D (increased proliferation of hFDPCs equals to or larger than 8%)”; and `CCn1c(NN)nc2ccccc2c1=O` [VII-24, 3-ethyl-2-hydrazinylquinazolin-4-one], with “D (increased proliferation of hFDPCs equals to or larger than 8%)”; and `CCCNC(=O)CCNC(=O)C(C)Oc1ccc(OC)cc1` (stereo not shown) [VII-25, 2-(4-methoxyphenoxy)-N-[3-oxo-3-(propylamino)propyl]propanamide], with “B (increased proliferation of hFDPCs equals to or larger than 1% and less than 4%)”. Turning to `CC(NC(=O)COc1ccc(CN(C)S(C)(=O)=O)cc1)c1ccccc1` (stereo not shown) [VII-26, 2-[4-[[methyl(methylsulfonyl)amino]methyl]phenoxy]-N-(1-phenylethyl)acetamide], the “Activity (Percent Increase Proliferation of hFDPCs (%))” value in the series on human dermal fibroblasts is on record as “D (increased proliferation of hFDPCs equals to or larger than 8%)”. For `CC(C)n1cnnc1` [VII-27, 4-propan-2-yl-1,2,4-triazole], the “Activity (Percent Increase Proliferation of hFDPCs (%))” value in the series with human dermal fibroblasts was “D (increased proliferation of hFDPCs equals to or larger than 8%)”.

Regarding `CC(=O)OC(Cn1ccnc1)c1ccccc1` (stereo not shown) [VII-28, (2-imidazol-1-yl-1-phenylethyl) acetate], the “Activity (Percent Increase Proliferation of hFDPCs (%))” value in the series with human dermal fibroblasts is recorded as “A (increased proliferation of hFDPCs of less than 1%)”. Still for that read-out and setting: then `CCC(N)Cn1ccnc1` (stereo not shown) [VII-29, 1-imidazol-1-ylbutan-2-amine], with “A (increased proliferation of hFDPCs of less than 1%)”. Consider `CCOC(Cn1ccnc1)OCC` [VII-30, 1-(2,2-diethoxyethyl)imidazole], for which the “Activity (Percent Increase Proliferation of hFDPCs (%))” value in the series on human dermal fibroblasts is given as “D (increased proliferation of hFDPCs equals to or larger than 8%)”. Still for that read-out and setting: then `COCCN(CCCc1ccccc1)C(=O)NC(C)Cn1ccnc1` (stereo not shown) [VII-31, 3-(1-imidazol-1-ylpropan-2-yl)-1-(2-methoxyethyl)-1-(3-phenylpropyl)urea], with “A (increased proliferation of hFDPCs of less than 1%)”.

As for `COc1ccc(CN2CCN(C(=O)CCn3ccnc3)CC2=O)cc1` [VII-32, 4-(3-imidazol-1-ylpropanoyl)-1-[(4-methoxyphenyl)methyl]piperazin-2-one], the “Activity (Percent Increase Proliferation of hFDPCs (%))” value in the series with human dermal fibroblasts was “A (increased proliferation of hFDPCs of less than 1%)”. Consider `COc1ccc(CN2CCN(C(=O)Cn3ccnc3)CC2)cc1` [VII-33, 2-imidazol-1-yl-1-[4-[(4-methoxyphenyl)methyl]piperazin-1-yl]ethanone], for which the “Activity (Percent Increase Proliferation of hFDPCs (%))” value in the series with human dermal fibroblasts was “C (increased proliferation of hFDPCs equals to or larger than 4% and less than 8%)”.

As to `COc1ccc(CCCc2nc3ccccc3[nH]2)cc1` [VII-34, 2-[3-(4-methoxyphenyl)propyl]-1H-benzimidazole], the “Activity (Percent Increase Proliferation of hFDPCs (%))” value with human dermal fibroblasts is recorded as “D (increased proliferation of hFDPCs equals to or larger than 8%)”. In addition, the “skin sensitizing potential” value in the series on Nrf2-ARE pathway was “did not exhibit apparent Nrf2-ARE pathway activation”. As to `O=C(CSc1nnc(SCC(=O)N2CCCC2)s1)N1CCCC1` [VII-35, 2-[[5-(2-oxo-2-pyrrolidin-1-ylethyl)sulfanyl-1,3,4-thiadiazol-2-yl]sulfanyl]-1-pyrrolidin-1-ylethanone], in the series on human dermal fibroblasts, the “Activity (Percent Increase Proliferation of hFDPCs (%))” value is “C (increased proliferation of hFDPCs equals to or larger than 4% and less than 8%)”.

For `O=C(CSc1nnnn1-c1ccc(O)cc1)N1CCCCC1` [VII-36, 2-[1-(4-hydroxyphenyl)tetrazol-5-yl]sulfanyl-1-piperidin-1-ylethanone], in the series with human dermal fibroblasts, the “Activity (Percent Increase Proliferation of hFDPCs (%))” value was “D (increased proliferation of hFDPCs equals to or larger than 8%)”. For `Cn1nnnc1SCC(=O)N1CCCCC1` [VII-37, 2-(1-methyltetrazol-5-yl)sulfanyl-1-piperidin-1-ylethanone], in the series with human dermal fibroblasts, the “Activity (Percent Increase Proliferation of hFDPCs (%))” value is “C (increased proliferation of hFDPCs equals to or larger than 4% and less than 8%)”. As to `CCNC(=O)NC1CN(Cc2ccccc2N(C)C)C[C@@H]1OC` (stereo partly drawn) [VII-38, 1-[(4S)-1-[[2-(dimethylamino)phenyl]methyl]-4-methoxypyrrolidin-3-yl]-3-ethylurea], in the series with human dermal fibroblasts, the “Activity (Percent Increase Proliferation of hFDPCs (%))” value is given as “D (increased proliferation of hFDPCs equals to or larger than 8%)”. Same read-out and setting: under oxetan-3-amine [VII-13] stands “D (increased proliferation of hFDPCs equals to or larger than 8%)”.
